Assay results taken from patent publication US20220332695A1, “UREA DERIVATIVES AS CB1 ALLOSTERIC MODULATORS” (RTI INTERNATIONAL, priority 2019, published 2022).
Where “and” joins values, the source holds several entries; their conditions need not be identical. Equal values may be shown once. Read-outs that look alike come from different tables or passages of the source.

Assays:
mouse CB1R = target: T1, mouse CB1R (Mus musculus, UniProt P47746); test: [35S]GTPγS binding assay in mouse cerebellum membranes; format: biochemical; conditions: for IC50: mouse cerebellum membrane, read-out: mCB1R GTPγS IC50
T1 construct: membranes (10 μg protein) from either ICR mouse cerebellum mice; from tissue; host or cells: cerebellum membranes of ICR mice
Procedure: (§1) [^35S]GTPγS Binding Assay: For receptor signaling, membranes (10 μg protein) from either ICR mouse cerebellum mice (6-8 weeks old; Enviga
(§2) Non-specific binding was determined by adding 30 μM unlabeled GTPyS. Concentration response curves for allosteric modulators were conducted in the presence of CP55,940 (100 nM or 1 μM) to calculate 1050 values.
(§3) For [^35S]GTPyS experiments, data were normalized to maximal CP55,940 (100 nM) stimulation in the absence of test compound (i.e., vehicle=100%).
Select compounds were evaluated in the CP55,940-induced [^35S]GTPyS binding assays using mouse cerebellum membrane at two CP55,940 concentrations, 100 nM and 1μM.

[1] = Metabolic stability in rat liver microsomes; format: in vitro ADME
Procedure: Metabolic stability assessment: Compounds were incubated with rat liver microsomes at 37° C. for a total of 45 minutes. The reaction was performed at pH 7.4 in 100 mM potassium phosphate buffer containing 0.5 mg/mL of rat liver microsomal protein. Phase I metabolism was assessed by adding NADPH to a final concentration of 1 mM and collecting samples at time points 0, 5, 15, 30 and 45 minutes. All collected samples were quenched 1:1 with ice-cold stop solution (1 μM labetalol and 1 μM glyburide in acetonitrile) and centrifuged to remove precipitated protein. Resulting supernatants were further diluted 1:4 with acetonitrile:water (1:1). Samples were analyzed by LC/MS/MS and calculations for half-life, and in-vitro clearance were accomplished using Microsoft Excel (2007).

[2] = Kinetic solubility assessment; format: physicochemical; conditions: aqueous buffer, kinetic from dmso stock, phosphate buffer, 2 hours room temperature
Procedure: The solution was agitated on a VX-2500 multi-tube vortexer (VWR International, Radnor, Pa., United States of America) for 2 hours at room temperature. Following agitation, the sample was filtrated on a glass-fiber filter (1 μm) and the eluate was diluted 400-fold with a mixture of acetonitrile: water (1:1). On each experimental occasion, nicardipine and imipramine were assessed as reference compounds for low and high solubility, respectively. All samples were assessed in triplicate and analyzed by LC-MS/MS using electrospray ionization against standards prepared in the same matrix.

MDCK-MDR1 cells = test: Bidirectional MDCK-MDR1 permeability assay; format: in vitro ADME; conditions: MDCK-MDR1, 10 μM test article
Procedure: Permeability Assessment. Bidirectional MDCK-MDR1 permeability assay was performed by Paraza Pharma Inc. (Montreal, Canada). MDCK-mdr1 cells at passage 5 were seeded onto permeable polycarbonate supports in 12-well Costar Transwell plates and allowed to grow and differentiate for 3 days. On day 3, culture medium (DMEM supplemented with 10% FBS) was removed from both sides of the transwell inserts and cells were rinsed with warm HBSS. After the rinse step, the chambers were filled with warm transport buffer (HBSS containing 10 mM HEPES, 0.25% BSA, pH 7.4) and the plates were incubated at 37° C. for 30 min prior to TEER (Trans Epithelial Electric Resistance) measurements.
The buffer in the donor chamber (apical side for A-to-B assay, basolateral side for B-to-A assay) was removed and replaced with the working solution (10 μM test article in transport buffer). The plates were then placed at 37° C. under light agitation. At designated time points (30, 60 and 90 min), an aliquot of transport buffer from the receiver chamber was removed and replenished with fresh transport buffer. Samples were quenched with ice-cold ACN containing internal standard and then centrifuged to pellet protein. Resulting supernatants are further diluted with 50/50 ACN/H2O (H2O only for Atenolol) and submitted for LC-MS/MS analysis. Reported apparent permeability (Papp) values were calculated from single determination.
Atenolol and propranolol were tested as low and […] permeability references.
The apparent permeability (Papp, measured in cm/s) of a compound is determined according to the following formula […]: […]
where dQ/dt is the net rate of appearance in the receiver compartment; A is the area of the Transwell measured in cm^2 (1.12 cm^2); Ci is the initial concentration of compound added to the donor chamber; and 60 is the conversion factor for minute to second.

hCB1R [3] = target: T2, hCB1R (Homo sapiens, UniProt P21554); test: [35S]GTPγS binding assay in HEK cells stably expressing human CB1R; format: biochemical; parameters: expressed in transfected cells; host or cells: HEK (HEK293) cells, membranes; conditions: [CP] = 100 nM, mean (95% confidence interval), read-out: hCB1R [35S]GTPγS binding assay IC50
Procedure: as §1, §2, §3

hCB1R [4] = target: T2, hCB1R; test: Calcium mobilization assay, antagonist mode against CP55,940; format: cell-based; parameters: expressed in transfected cells; host or cells: CHO-RD-HGA16 cells (parental line from Molecular Devices); conditions: CHO cells expressing human CB1R; against CP55,940 (100 nM); mean ± SEM; read-out: hCB1R Calcium assay IC50
Procedure: Calcium Mobilization Assay: CHO-RD-HGA16 cells (Molecular Devices, San Jose, Calif., United States of America) stably expressing the human CB1 receptor were plated into 96-well black-walled assay plates at 25,000 cells/well in 100 pL of Ham's F12 (supplemented with 10% fetal bovine serum, 100 units of penicillin/streptomycin, and 100 µg/mL Normocin) and incubated overnight at 37° C., 5% CO2. Calcium 5 dye (Molecular Devices, San Jose, Calif., United States of America) was reconstituted according to the manufacturer's instructions. The reconstituted dye was diluted 1:40 in prewarmed (37° C.) assay buffer (1x HBSS, 20 mM HEPES, 2.5 mM probenecid, pH 7.4 at 37° C.). Growth medium was removed, and the cells were gently washed with 100 pL of prewarmed (37° C.) assay buffer. The cells were incubated for 45 min at 37° C., 5% CO2 in 200 pL of the diluted Calcium 5 dye solution. […] Serial dilutions of the test compounds were prepared at 10x the desired final concentration in 2.25% BSA/4.5% DMSO/4.5% EtOH/assay buffer. After the dye loading incubation period, the cells were pretreated with 25 pL of the test compound serial dilutions and incubated for 15 min at 37° C. After the pretreatment incubation period, the plate was read with a FLIPR Tetra (Molecular Devices, San Jose, Calif., United States of America). Calcium-mediated changes in fluorescence were monitored every 1 s over a 90 s time period, with the Tetra adding 25 pL of the CP55,940 EC80 concentration at the 10s time point (excitation/emission: 485/525 nm). Relative fluorescence units (RFU) were plotted against the log of compound concentrations. For agonist screens, the above procedure was followed except that cells were pretreated with 2.25% BSA/4.5% DMSO/4.5% EtOH/assay buffer and the Tetra added single concentration dilutions of the test compounds prepared at 10x the desired final concentration in 0.25% BSA/0.5% DMSO/0.5% EtOH/assay buffer. Test compound RFUs were compared to the CP55,940 Emax RFUs to generate % Emax values.
Data Analysis: For calcium mobilization experiments, data were fit to a three-parameter logistic curve to generate IC50 values (GraphPad Prism 6.0, Graphpad Software, San Diego, Calif., United States of America).

hCB1R [5] = target: T2, hCB1R; test: Intrinsic activity: basal [35S]GTPγS binding in the absence of CP55,940; format: biochemical; conditions: up to 10 μM
hCB1R [6] = target: T2, hCB1R; test: Real-time BRET CAMYEL cAMP assay in HEK293 cells expressing human CB1; format: cell-based; parameters: expressed in transfected cells; host or cells: HEK293 cells stably transfected with human CB1, transiently transfected with pcDNA3L-His-CAMYEL sensor; conditions: for IC50: [CP] = 100 nM, forskolin-stimulated cAMP
Procedure: cAMP Assay: The cAMP assay was performed as previously described. […] Briefly, forskolin (FSK)-stimulated cyclic adenosine monophosphate (cAMP) production was measured in real-time using a transfected bioluminescence resonance energy transfer (BRET) cAMP sensor. The plasmid encodes a cAMP binding domain (Epac1) flanked by yellow fluorescent protein (YFP) and Renilla Luciferase (RLuc) assay, the latter of which can oxidize coelenterazine H and produce a photon as a byproduct. When cAMP is bound to the Epac1 domain, it separates RLuc and YFP so only Rluc emits a photon at a wavelength of 460 nm. When cAMP is not bound, RLuc can excite YFP, emitting light at wavelength 535 nm. A plate reader measures both wavelengths and their ratio, 460/535, is calculated to quantify cAMP levels where increases in the ratio indicate increases in cAMP. Human Embryonic Kidney 293 (HEK293) cells stably transfected with the human cannabinoid type-1 (C131) were maintained at 37° C. at 5% CO2 and seeded in 100 mM dishes for transfection. The next day, cells were given fresh growth media and transfected with 5 pg of pcDNA3L-His-CAMYEL using linear polyethyleneimine (25 kDa, Polysciences, Warrington, Pennsylvania, United States of America) in 1:6 DNA:PEI (ATCC, Manassas, Virginia, United States of America) ratio. The next day, cells were lifted using 1 mM EDTA in PBS and spun down at 200xg for 5 min. The supernatant was removed, and cells were resuspended in growth media and plated on poly-D-lysine (Sigma Aldrich, St. Louis, Missouri, United States of America) coated white 96 well plates at 60,000 cells per well, filling 2 columns of 8 wells each per plate, i.e. 8 samples in duplicate per plate (Perkin Elmer, Waltham, Massachusetts,
United States of America). The following day, media was removed, cells were rinsed with PBS and buffers/reagents/drugs added as following: At 0 min, 175 of stimulation buffer (5 mg/ml bovine serum albumin in HBSS including Ca^2+ and Mg^2+); at 10 min, 25 μL of allosteric modulators added; at 15 min: 25 μL coelenterazine added (5 μM final); at 25 min, 25 μL of forskolin (10 final) with or without CP55,940 (100 nM final) added. […] Ratio of 460/535 is calculated for each time point and plotted across time and area under the curve analysis is conducted for each replicate and averaged by condition/day where each day serves as an independent experiment. Data were calculated as %FSK using the formula [(sample-basal)/(forskolin-basal)×100]. IC50 values were calculated from these normalized concentration-response data using Prism 6 (Graphpad Software, San Diego, Calif., United States of America) using 3 parameter non-linear regression. Data are plotted as mean of at least N=3 independent experiments either normalized to forskolin (concentration response data) or the calculated 460/535 BRET ratio (time course data).

T2 sequence (P21554 whole entry): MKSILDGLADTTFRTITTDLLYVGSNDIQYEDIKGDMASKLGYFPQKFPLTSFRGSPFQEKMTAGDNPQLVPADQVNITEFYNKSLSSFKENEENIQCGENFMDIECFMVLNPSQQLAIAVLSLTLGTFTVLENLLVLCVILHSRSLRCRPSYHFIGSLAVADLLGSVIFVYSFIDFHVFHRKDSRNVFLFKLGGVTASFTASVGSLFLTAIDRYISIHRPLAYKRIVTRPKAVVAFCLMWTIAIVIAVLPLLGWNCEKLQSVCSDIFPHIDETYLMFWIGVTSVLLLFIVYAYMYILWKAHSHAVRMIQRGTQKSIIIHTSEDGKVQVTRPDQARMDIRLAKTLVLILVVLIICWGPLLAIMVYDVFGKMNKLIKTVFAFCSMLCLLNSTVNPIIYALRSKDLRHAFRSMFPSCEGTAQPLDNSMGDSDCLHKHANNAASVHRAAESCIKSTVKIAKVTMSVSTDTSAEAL
T1 sequence (P47746 whole entry): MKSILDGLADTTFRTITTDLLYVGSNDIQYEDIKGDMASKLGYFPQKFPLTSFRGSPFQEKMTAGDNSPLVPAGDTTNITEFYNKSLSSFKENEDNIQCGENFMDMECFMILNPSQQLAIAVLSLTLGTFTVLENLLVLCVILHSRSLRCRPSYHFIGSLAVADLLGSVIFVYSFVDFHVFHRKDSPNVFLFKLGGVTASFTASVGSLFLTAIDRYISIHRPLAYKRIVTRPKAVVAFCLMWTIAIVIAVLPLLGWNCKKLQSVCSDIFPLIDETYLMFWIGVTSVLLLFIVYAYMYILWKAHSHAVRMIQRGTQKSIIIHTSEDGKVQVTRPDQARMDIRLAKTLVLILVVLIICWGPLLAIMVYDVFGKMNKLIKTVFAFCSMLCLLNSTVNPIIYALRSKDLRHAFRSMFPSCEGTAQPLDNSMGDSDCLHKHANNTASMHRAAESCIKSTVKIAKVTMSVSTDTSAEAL

SMILES | IC50 (mouse CB1R; [CP] = 100 nM) | IC50 (mouse CB1R; [CP] = 1 uM) | IC50 (hCB1R [3]) | IC50 (hCB1R [4]) | IC50 (hCB1R [6]) | also measured
O=C(Nc1ccc(Cl)cc1)Nc1cccc(-c2cccc(N3CCCC3)n2)c1 [Compound 2, reference compound] | 244 nM | 127 nM | – | – | – | half-life ([1]; NADPH, mean ± SD): 13 min and 13.4 ± 4.1 min; Clearance ([1]; mean ± SD): 113.7 ± 34.4 µL/min/mg; solubility at 2 h [2]: < 0.5 µM; Papp A to B (MDCK-MDR1 cells): 2.6 ± 0 ×10^−6 cm/s; Papp B to A (MDCK-MDR1 cells): 2.2 ± 0.1 ×10^−6 cm/s
O=C(Nc1ccc(Cl)cc1)Nc1cc(-c2ccccc2)cs1 [Compound 12, 1-(4-Chlorophenyl)-3-(4-phenylthiophen-2-yl)urea] | – | – | 667 nM | 37 ± 2 nM | – | activity in [35S]GTPγS binding assay against mouse CB1R (in words) (mouse CB1R; compared with compound 2): weaker potency
O=C(Nc1ccc(Cl)cc1)Nc1ncc(-c2ccccc2)s1 [Compound 14, 1-(4-Chlorophenyl)-3-(5-phenyl-1,3-thiazol-2-yl)urea] | – | – | 604 nM | 79 ± 10 nM | – | inverse agonism (in words) (hCB1R [5]): some degree of inverse agonism
O=C(Nc1ccc(Cl)cc1)Nc1ccc(-c2ccc(F)cc2)s1 [Compound 18, 1-(4-Chlorophenyl)-3-[5-(4-fluorophenyl)thiophen-2-yl]urea] | 174 nM | 145 nM | 537 nM | 40 ± 2 nM | – | –
O=C(Nc1ccc(Cl)cc1)Nc1ccc(-c2ccc(F)cc2F)s1 [Compound 20, 1-(4-Chlorophenyl)-3-[5-(2,4-difluorophenyl)thiophen-2-yl]urea] | 138 nM | 48 nM | 84 nM | 22 ± 4 nM | 2290 nM | half-life ([1]; pH 7.4, NADPH, mean ± SD, read-out: Half-life): 72 min; microsomal CLint ([1]; pH 7.4, mean ± SD, read-out: Clearance): 19.3 ± 1.6 µL/min/mg; solubility at 2 h [2]: < 0.5 µM
O=C(Nc1ccc(Cl)cc1)Nc1ccc(-c2ccccc2Cl)s1 [Compound 21, 1-(4-Chlorophenyl)-3-[5-(2-chlorophenyl)thiophen-2-yl]urea] | 363 nM | 204 nM | 272 nM | 21 ± 2 nM | 1190 nM | inverse agonism in cAMP assay (hCB1R [6]; concentrations up to 10 μM): displayed inverse agonism
O=C(Nc1ccc(Cl)cc1)Nc1ccc(-c2cc(Cl)cc(Cl)c2)s1 [Compound 25, 1-(4-Chlorophenyl)-3-[5-(3,5-dichlorophenyl)thiophen-2-yl]urea] | 3310 nM | 2400 nM | 6330 nM | 92 ± 12 nM | > 10000 nM | –
CC(=O)c1cccc(-c2ccc(NC(=O)Nc3ccc(Cl)cc3)s2)c1 [Compound 26, 3-[5-(3-Acetylphenyl)thiophen-2-yl]-1-(4-chlorophenyl)urea] | – | – | 3430 nM | 108 ± 17 nM | – | –
COC(=O)c1cccc(-c2ccc(NC(=O)Nc3ccc(Cl)cc3)s2)c1 [Compound 27, Methyl 3-(5-{[(4-chlorophenyl)carbamoyl]amino}thiophen-2-yl)benzoate] | – | – | 2350 nM | 345 ± 48 nM | – | –
CS(=O)(=O)c1cccc(-c2ccc(NC(=O)Nc3ccc(Cl)cc3)s2)c1 [Compound 28, 1-(4-Chlorophenyl)-3-[5-(3-methanesulfonylphenyl)thiophen-2-yl]urea] | – | – | 3230 nM | 501 ± 58 nM | – | –
COc1ccccc1-c1ccc(NC(=O)Nc2ccc(Cl)cc2)s1 [Compound 29, 1-(4-Chlorophenyl)-3-[5-(2-methoxyphenyl)thiophen-2-yl]urea] | – | – | 2020 nM | 58 nM | – | –
COc1cccc(-c2ccc(NC(=O)Nc3ccc(Cl)cc3)s2)c1 [Compound 30, 1-(4-Chlorophenyl)-3-[5-(3-methoxyphenyl)thiophen-2-yl]urea] | 3020 nM | 1620 nM | 3280 nM | 61 nM | 6350 nM | –
COc1ccc(-c2ccc(NC(=O)Nc3ccc(Cl)cc3)s2)cc1 [Compound 31, 1-(4-Chlorophenyl)-3-[5-(4-methoxyphenyl)thiophen-2-yl]urea] | 110 nM | 120 nM | 449 nM | 31 ± 2 nM | 1850 nM | –
Cc1cccc(-c2ccc(NC(=O)Nc3ccc(Cl)cc3)s2)c1 [Compound 32, 1-(4-Chlorophenyl)-3-[5-(3-methylphenyl)thiophen-2-yl]urea] | – | – | 1180 nM | 48 ± 8 nM | – | –
CN(C)c1cccc(-c2ccc(NC(=O)Nc3ccc(Cl)cc3)s2)c1 [Compound 33, 1-(4-Chlorophenyl)-3-{5-[3-(dimethylamino)phenyl]thiophen-2-yl}urea] | 3470 nM | 3310 nM | 5020 nM | 89 ± 14 nM | > 10000 nM | –
O=C(Nc1ccc(Cl)cc1)Nc1ccc(-c2cccnc2)s1 [Compound 34, 1-(4-Chlorophenyl)-3-[5-(pyridin-3-yl)thiophen-2-yl]urea] | – | – | 298 nM | 107 ± 6 nM | – | –
O=C(Nc1ccc(Cl)cc1)Nc1ccc(-c2ccncc2)s1 [Compound 35, 1-(4-Chlorophenyl)-3-[5-(pyridin-4-yl)thiophen-2-yl]urea] | 287 nM and 204 nM | 129 nM and 120 nM | 298 nM | 79 ± 13 nM | 1800 nM | inverse agonism (in words) (hCB1R [5]): some degree of inverse agonism
